Results on eight compounds are retold here after PubChem BioAssay (NCI).

Among the test systems are TK-10 renal; OVCAR-5 ovarian; RXF 393 renal; OVCAR-3 ovarian; CCRF-CEM leukemia; SW-620 colon; HL-60(TB) leukemia; SK-MEL-28 melanoma; K-562 leukemia; A498 renal.
Holding throughout (experiment): inhibition of tumour cell growth, NCI panel, 48 h

Each structure is given as a SMILES string.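 Growth conditions: 96-well plates. Treatment: test compound, 48 hours, 5 concentrations. Analysis: linear interpolation between bracketing concentrations; unreached endpoints set to highest concentration. GI50 is the concentration that inhibits growth by half. At the TGI there is no net growth.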 Bounds are passed on as bounds.

Consider `CC(C)(C)OC(=O)CC(S(=O)(=O)c1ccccc1)S(=O)(=O)c1ccccc1`, for which the GI50 is 1.6 µM in the test on TK-10 renal; 17.4 µM with OVCAR-5 ovarian; 1.8 µM in the test with RXF 393 renal; 1.88 µM in the test with OVCAR-3 ovarian; 1.64 µM in the test with CCRF-CEM leukemia; 1.64 µM with SW-620 colon. Moreover, the GI50 with HL-60(TB) leukemia was 3.19 µM; in the test with SK-MEL-28 melanoma it was 12.9 µM; with K-562 leukemia, 3.4 µM; in the test on A498 renal, 13.2 µM. Moreover, the TGI in the test with TK-10 renal was 3.02 µM; with OVCAR-5 ovarian it was 32.7 µM; in the test on RXF 393 renal, 3.31 µM; in the test on OVCAR-3 ovarian, 3.29 µM; with CCRF-CEM leukemia it was 3.83 µM; with SW-620 colon it was 3.17 µM. In addition, the TGI in the test with HL-60(TB) leukemia was determined as 12.2 µM; in the test on SK-MEL-28 melanoma, 25.6 µM; in the test with K-562 leukemia, 13.5 µM; in the test on A498 renal, 26.4 µM.

As to `O=C1Cc2c([nH]c3ccccc23)-c2cc(Br)ccc2N1`, the TGI in the test with TK-10 renal, with OVCAR-5 ovarian, in the test on RXF 393 renal, in the test on OVCAR-3 ovarian, in the test with CCRF-CEM leukemia and in the test on SW-620 colon was greater than 100 µM in each case. Also, the TGI in the test with HL-60(TB) leukemia, with SK-MEL-28 melanoma, with K-562 leukemia and with A498 renal was greater than 100 µM throughout.

With `CCOc1ccccc1NC(=O)C1=C(C)NC(C)=C(C(=O)Nc2ccccc2OCC)C1c1ccc2c(c1)OCO2`, the TGI in the test on TK-10 renal was greater than 100 µM; in the test on OVCAR-5 ovarian, greater than 100 µM; in the test on RXF 393 renal it was greater than 100 µM; with OVCAR-3 ovarian it was 71.8 µM; in the test on CCRF-CEM leukemia, 85.1 µM; with SW-620 colon it was greater than 100 µM. The TGI is 45.3 µM with HL-60(TB) leukemia, greater than 100 µM with SK-MEL-28 melanoma, 70.3 µM in the test with K-562 leukemia and 84 µM in the test with A498 renal.

Regarding `CN(C)CN(C)c1nc(N(C)C)nc(N(C)C)n1`, the TGI in the test on TK-10 renal, in the test with OVCAR-5 ovarian, in the test on RXF 393 renal, in the test on OVCAR-3 ovarian, in the test on CCRF-CEM leukemia and with SW-620 colon was greater than 100 µM each time. Also, the TGI in the test with HL-60(TB) leukemia, with SK-MEL-28 melanoma, in the test on K-562 leukemia and in the test with A498 renal was greater than 100 µM throughout.

Take `O=C(O)c1cc2ccc(Cl)cc2c(O)c1C1=CCCCC1`: the TGI in the test with TK-10 renal, in the test with OVCAR-5 ovarian, in the test with RXF 393 renal, with OVCAR-3 ovarian, in the test on CCRF-CEM leukemia and in the test with SW-620 colon was greater than 100 µM throughout. The TGI with HL-60(TB) leukemia was greater than 100 µM; in the test on SK-MEL-28 melanoma it was greater than 100 µM; in the test with K-562 leukemia, greater than 100 µM; in the test on A498 renal it was 79.1 µM.

On to `COc1ccc(N=C2C(=O)Nc3ccc(Br)cc32)cc1`, for which the TGI with TK-10 renal was determined as 56.9 µM; in the test on OVCAR-5 ovarian, 58 µM; in the test with RXF 393 renal, 36.9 µM; with OVCAR-3 ovarian, 62.4 µM; in the test on CCRF-CEM leukemia, 37.2 µM; with SW-620 colon it was 63.8 µM. The TGI is 42.7 µM in the test with HL-60(TB) leukemia, 84.6 µM in the test on SK-MEL-28 melanoma, 33.2 µM with K-562 leukemia and greater than 100 µM with A498 renal.

For `C#CCN(CCCOc1ccc(Cl)cc1Cl)CCCSC(=O)CCCCCN1/C(=C\C=C2/CCCC(/C=C/C3=[N+](CCCCCC(=O)[O-])c4ccccc4C3(C)C)=C2Cl)C(C)(C)c2ccccc21`, the GI50 in the test with TK-10 renal is 2.21 µM; with OVCAR-5 ovarian it was 1.78 µM; in the test on RXF 393 renal it was 1.66 µM; in the test on OVCAR-3 ovarian, 1.45 µM; in the test on CCRF-CEM leukemia it was 0.344 µM; in the test on SW-620 colon it was 1.65 µM. Further, the GI50 in the test with HL-60(TB) leukemia was 1.62 µM; in the test with SK-MEL-28 melanoma it was 0.708 µM; in the test with K-562 leukemia, 0.667 µM; in the test on A498 renal, 1.31 µM. Further, the TGI came to 5.17 µM with TK-10 renal; 3.92 µM in the test with OVCAR-5 ovarian; 3.37 µM in the test with RXF 393 renal; 3.31 µM in the test on OVCAR-3 ovarian; 4.38 µM with CCRF-CEM leukemia; 5.44 µM with SW-620 colon. Besides, the TGI with HL-60(TB) leukemia was 4.79 µM; in the test on SK-MEL-28 melanoma, 2.43 µM; in the test on K-562 leukemia it was greater than 100 µM; in the test with A498 renal, 4.12 µM.

With `COc1ccc(C2=NOC3=c4ccccc4=CSC3=C2c2ccccc2)cc1`, the GI50 is 54 µM with TK-10 renal; 80.1 µM in the test on OVCAR-5 ovarian; 22.2 µM with RXF 393 renal; 25 µM with OVCAR-3 ovarian; 21.7 µM in the test with CCRF-CEM leukemia; 28.9 µM in the test with SW-620 colon. The GI50 in the test with HL-60(TB) leukemia was 39.7 µM; in the test on SK-MEL-28 melanoma it was 37.7 µM; in the test on K-562 leukemia, 51.2 µM. Further, the TGI with TK-10 renal was greater than 100 µM; in the test with OVCAR-5 ovarian, greater than 100 µM; in the test on RXF 393 renal it was 63.7 µM; in the test on OVCAR-3 ovarian, 79.5 µM; with CCRF-CEM leukemia, greater than 100 µM; with SW-620 colon, greater than 100 µM. The TGI in the test on HL-60(TB) leukemia, in the test with SK-MEL-28 melanoma, with K-562 leukemia and in the test with A498 renal was greater than 100 µM in each case.
